Tests used:
[1] = target: PAF (Penicillium antifungal protein) (Penicillium chrysogenum, UniProt Q01701); assay: Isothermal titration calorimetry of PAF–sclxn complexation; assay type: binding; conditions: ITC, median (2.5% quantile, 97.5% quantile)
Method: PAF samples were dissolved in 10 mM sodium phosphate pH 6.0. The same buffer was used to dilute stocks of sclx4 (7.1 mM, PAF 0.5 mM), sclx6 (3.6 mM, PAF 0.5 mM) and sclx8 (2.5 mM, PAF 0.3 mM) to the required concentration. Samples were degassed prior to the titration. Measurements were made at 25°C using a Microcal ITC-200 instrument. Titrations were performed in duplicate with similar trends between each replicate. A single replicate from each calixarene was used for model fitting. Separate titrations of each calixarene into buffer confirmed that the heats of dilution were small, exothermic and approximately constant.
NITPIC (Keller et al., 2012[▸]) was used for baseline correction and integration of the thermograms. Pytc (Duvvuri et al., 2018[▸]) was used to perform model fitting and parameter estimation. The system of equations relating the independent variables of the model (total concentrations) to the experimental observations (heat generated during injections) for the single-site and bidentate-ligand models are as follows.
Single-site model, [drawing 1] [drawing 2] [drawing 3] where [P T]i is the total cell concentration of protein at the ith injection (independent variable), [L T]i is the total cell concentration of ligand at the ith injection (independent variable), K 1 is the equilibrium association constant (fit parameter), ΔH is the enthalpy (fit parameter) associated with K, V cell is the volume of the cell, vi is the volume of the ith injection, qi is the heat generated from the ith injection (dependent variable) and q dil is the heat of dilution (fit parameter, assumed to be constant)
Bidentate-ligand model, [drawing 4] [drawing 5] [drawing 6] where K 1 and K 2 are the microscopic equilibrium association constants (fit parameters), ΔH 1 and ΔH 2 are the enthalpies (fit parameters) associated with K 1 and K 2, respectively
The expressions for mass balance of the protein and ligand can be represented by equations (1) or (4). Equation (2) or (5) can be used to define the equilibrium constants. For the bidentate ligand model, equation (5) was solved numerically (the Levenberg–Marquardt algorithm) to yield the free-protein ([P]i) and free-ligand ([L]i) concentrations. The free concentrations were used to compute the concentrations of the other states via the equilibrium equations. The heat generated from a given injection was determined using either equations (3) or (6). Parameters were constrained to physically reasonable bounds (e.g. K 1 and K 2 values between 10^2 and 10^10 M ^−1) and best-fits were obtained by maximum likelihood starting from a range of initial estimates. Parameter errors and correlations were estimated using a Bayesian approach (Markov chain Monte Carlo simulations). The error for each integrated heat was determined using NITPIC (Keller et al., 2012[▸]).
Isothermal titration calorimetry was used to characterize the PAF–sclxn binding affinities and stoichiometries (Fig. 7 ▸). The data were fitted to a single-site or a bidentate-ligand model. The latter model describes a bidentate ligand that can bind two protein molecules and was necessary to describe the obviously biphasic data for sclx8. The choice of this model is supported by the observation of a PAF–sclx8–PAF dimer in the crystal structure, and by the spectral broadening in the NMR experiments. All of the fit parameters were well determined by the data (Table 1 ▸), with parameter errors assessed by Bayesian methods (Patil et al., 2010[▸]).

[2] = test system: cytochrome c; parameters: method as in Rennie et al., 2017; conditions: relative to sclx4, ref Rennie et al., 2017; cited from earlier work
[3] = bidentate-ligand model, binding the first molecule of PAF (K1), pH 6.0, 25°C
[4] = bidentate-ligand model, binding the second molecule of PAF (K2), pH 6.0, 25°C
[5] = bidentate-ligand model, first molecule of PAF (ΔH1), pH 6.0, 25°C
[6] = bidentate-ligand model, first molecule of PAF, pH 6.0, 25°C
[7] = bidentate-ligand model, second molecule of PAF (ΔH2), pH 6.0, 25°C
[8] = bidentate-ligand model, second molecule of PAF, pH 6.0, 25°C
[9] = single-site model, 10 mM sodium phosphate pH 6.0, 25°C

Chain of PAF (Penicillium antifungal protein) (Q01701 entry or part of it): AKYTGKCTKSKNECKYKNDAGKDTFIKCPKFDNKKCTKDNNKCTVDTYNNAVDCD

Compound | Kd [1, 3] [µM] | Kd [1, 4] [µM] | ΔH [1, 5] | TΔS [1, 6] | ΔH [1, 7] | TΔS [1, 8] | Kd [1, 9] [µM] | TΔS [1, 9] | ΔH [1, 9] | increase in affinity (with respect to sclx4) [2]
O=S(=O)(O)c1cc2c(O)c(c1)Cc1cc(S(=O)(=O)O)cc(c1O)Cc1cc(S(=O)(=O)O)cc(c1O)Cc1cc(S(=O)(=O)O)cc(c1O)Cc1cc(S(=O)(=O)O)cc(c1O)Cc1cc(S(=O)(=O)O)cc(c1O)Cc1cc(S(=O)(=O)O)cc(c1O)Cc1cc(S(=O)(=O)O)cc(c1O)C2 [sclx8, Sulfonato-calix[8]arene] | 10.6 | 33.5 | −3.5 (0.3, 0.3) kJ mol^−1 | −24.8 (0.3, 0.3) kJ mol^−1 | −36.0 (1.7, 1.4) kJ mol^−1 | 10.5 (1.8, 2.1) kJ mol^−1 | – | – | – | –
O=S(=O)(O)c1cc2c(O)c(c1)Cc1cc(S(=O)(=O)O)cc(c1O)Cc1cc(S(=O)(=O)O)cc(c1O)Cc1cc(S(=O)(=O)O)cc(c1O)C2 [sclx4] | – | – | – | – | – | – | 107 | −5.6 (0.2, 0.2) kJ mol^−1 | −16.9 (0.1, 0.1) kJ mol^−1 | –
O=S(=O)(O)c1cc2c(O)c(c1)Cc1cc(S(=O)(=O)O)cc(c1O)Cc1cc(S(=O)(=O)O)cc(c1O)Cc1cc(S(=O)(=O)O)cc(c1O)Cc1cc(S(=O)(=O)O)cc(c1O)Cc1cc(S(=O)(=O)O)cc(c1O)C2 [sclx6] | 47.8 | 45.8 | −9.2 (0.1, 0.2) kJ mol^−1 | −15.4 (0.4, 0.3) kJ mol^−1 | −20.1 (0.4, 0.4) kJ mol^−1 | −4.6 (0.6, 0.6) kJ mol^−1 | 15.4 | −0.7 (0.2, 0.2) kJ mol^−1 | −28.2 (0.2, 0.1) kJ mol^−1 | –
O=P(O)(O)c1cc2c(O)c(c1)Cc1cc(P(=O)(O)O)cc(c1O)Cc1cc(P(=O)(O)O)cc(c1O)Cc1cc(P(=O)(O)O)cc(c1O)Cc1cc(P(=O)(O)O)cc(c1O)Cc1cc(P(=O)(O)O)cc(c1O)C2 [pclx6, phosphonato-calix[6]arene] | – | – | – | – | – | – | – | – | – | approximately tenfold

— paper PMC6400181, “Calixarene-mediated assembly of a small antifungal protein” (IUCrJ, 2019)
